In US20220007644A1, “COMPOSITIONS COMPRISING PYRIDINE CARBOXYLATE HERBICIDES WITH PHOTOSYSTEM II AND OPTIONAL HPPD INHIBITOR HERBICIDES” (Corteva Agriscience LLC, priority 2018, published 2022):

How the values were obtained:
Assay type in all cases: in vivo
[1] = test system: BRSNN, Brassica napus (spring rape); assay: Greenhouse postemergence herbicidal effect (visual injury, 20-22 d)
From the text: (§1) Greenhouse Trial Methodology—Evaluation of Postemergence Herbicidal Effect
(§2) Seeds of the desired test plant species were planted in a 90:10% v/v (volume/volume) mixture of PRO-MIX® BX (Premier Tech Horticulture, Quakertown, Pa., USA) and PROFILE®GREENS GRADE™ (Profile Products LLC, Buffalo Grove, Ill., USA) planting mixture, which typically has a pH of 5.2 to 6.2 and an organic matter content of at least 50 percent, in plastic pots with a surface area of 103.2 square centimeters (cm^2). In some aspects, to help ensure good germination and healthy plants, a fungicide treatment and/or other chemical or physical treatment was applied. The plants were grown for 7-36 days (d) in a greenhouse with an approximate 14-hour (h) photoperiod which was maintained at about 23° C. during the day and 22° C. during the night. Nutrients and water were added on a regular basis and supplemental lighting was provided with overhead metal halide 1000-Watt lamps as necessary. The plants were employed for testing when they reached the second or third true leaf stage.
(§3) Emulsifiable concentrates of each of each pyridine carboxylate herbicide (Compound A or Compound B) were prepared at 100 grams acid equivalent per liter (g ae/L). The emulsifiable concentrates also included a safener, cloquintocet-mexyl, at 120 grams active ingredient per liter (g ai/L), unless otherwise noted below. An aliquot of each emulsifiable concentrate was placed in a 25 mL glass vial and diluted with an aqueous mixture of 1.25% (v/v) ACTIROB® B esterified rapeseed oil (Bayer Crop Science, Research Triangle Park, N.C., USA) or MSO® Concentrate with LECI-TECH® methylated soybean oil (Loveland Products, Loveland, Colo., USA) to obtain concentrated stock solutions at the highest application rate for each herbicide, based upon a 12 milliliter (mL) application volume at a rate of 187 liters per hectare (L/ha). The concentrated stock solutions were further diluted with an aqueous mixture of 1.25% v/v ACTIROB® B or MSO® Concentrate with LECI-TECH® to obtain stock solutions at reduced application rates for each herbicide. Spray solutions of the herbicide combinations (Compound A or Compound B plus PS-II herbicide and optional HPPD herbicide) were prepared by adding weighed amounts or aliquots of the PS-II herbicide and optional HPPD herbicide to the stock solutions of Compound A or Compound B to form 12-mL spray solutions in two- or three-way combinations.
(§4) The spray solutions were applied to the plant material with an overhead Mandel track sprayer equipped with 8002E nozzles calibrated to deliver 187 L/ha over an application area of 0.503 square meters (m^2) at a spray height of 18 inches ([…] centimeters (cm)) above the average plant canopy. Control plants were sprayed in the same manner with the solvent blank. All pyridine carboxylate herbicide (component a) application rates are given as “g ae/ha” and all PS II inhibitor herbicide (component b) and HPPD inhibitor herbicide (component c) application rates are given as “g ai/ha.”
(§5) The treated plants and control plants were placed in a greenhouse as described above and watered by sub-irrigation to prevent wash-off of the test compounds. After 20-22 d, the condition of the test plants as compared with that of the control plants was determined visually and scored on a scale of 0 to 100 percent where 0 corresponds to no injury and 100 corresponds to complete kill.

[2] = test system: CHEAL, Chenopodium album L. (common lambsquarters); assay: as above
From the text: as §1, §2, §3, §4, §5

[3] = test system: KCHSC, Kochia scoparia (kochia); assay: as above
From the text: as §1, §2, §3, §4, §5

[4] = test system: POLCO, Polygonum convolvulus (wild buckwheat); assay: as above
From the text: as §1, §2, §3, §4, §5

[5] = test system: SASKR, Salsola kali (Russian thistle); assay: as above
From the text: as §1, §2, §3, §4, §5

[6] = test system: SINAR, Sinapis arvensis (wild mustard); assay: as above
From the text: as §1, §2, §3, §4, §5

[7] = test system: AMARE, Amaranthus retroflexus (pigweed); assay: as above
From the text: as §1, §2, §3, §4, §5

[8] = test system: BRSNW, Brassica napus (winter rape); assay: as above
From the text: as §1, §2, §3, §4, §5

[9] = test system: CIRAR, Cirsium arvense (Canada thistle); assay: as above
From the text: as §1, §2, §3, §4, §5

[10] = test system: MATCH, Matricaria chamomilla (wild chamomile); assay: as above
From the text: as §1, §2, §3, §4, §5

[11] = test system: HORVS, Hordeum vulgare (spring barley); assay: Greenhouse postemergence phytotoxicity on crop (visual injury, 20-22 d)
From the text: as §1, §2, §3, §4, §5

[12] = test system: TRZAS, Triticum aestivum (spring wheat); assay: as above
From the text: as §1, §2, §3, §4, §5

[13] = test system: ABUTH, Abutilon theophrasti (velvetleaf); assay: Greenhouse postemergence herbicidal effect (visual injury, 20-22 d)
From the text: as §1, §2, §3, §4, §5

[14] = test system: EPHHL, Euphorbia heterophylla (poinsettia); assay: as above
From the text: as §1, §2, §3, §4, §5

[15] = test system: SETFA, Setaria faberi (giant foxtail); assay: as above
From the text: as §1, §2, §3, §4, §5

[16] = test system: STEME, Stellaria media (chickweed); assay: as above
From the text: as §1, §2, §3, §4, §5

[17] = test system: VIOTR, Viola tricolor (wild pansy); assay: as above
From the text: as §1, §2, §3, §4, §5

[18] = Fallopia convolvulus, post-emergence, read-out: visual injury Obs

`CC(C)c1nn(C(=O)NC(C)(C)C)c(=O)n1N` [Amicarbazone, 4-amino-N-tert-butyl-4,5-dihydro-3-isopropyl-5-oxo-1H-1,2,4-triazole-1-carboxamide] was tested, and the “visual injury Obs” value ([1]; 175 g ai/ha alone) was 38%, the “visual injury Obs” value ([2]; 175 g ai/ha alone) was 38% and the “visual injury Obs” value ([3]; 175 g ai/ha alone) was 25%. The pest or weed control at 175 g/ha ([4]; Fallopia convolvulus, post-emergence, 175 g ai/ha alone, read-out: visual injury Obs) was 10%, the “visual injury Obs” value ([5]; 175 g ai/ha alone) was 0% and the “visual injury Obs” value ([6]; 175 g ai/ha alone) was 25%.

`CNC(=O)N(C)c1nnc(C(C)(C)C)s1` [Tebuthiuron, 1-(5-tert-butyl-1,3,4-thiadiazol-2-yl)-1,3-dimethylurea, reference compound] was tested, and the “visual injury Obs” value ([7]; 280 g ai/ha alone) was 88%, the “visual injury Obs” value ([8]; 280 g ai/ha alone) was 45% and the “visual injury Obs” value ([2]; 280 g ai/ha alone) was 98%. The “visual injury Obs” value ([9]; 280 g ai/ha alone) was 40%, the “visual injury Obs” value ([3]; 280 g ai/ha alone) was 23% and the “visual injury Obs” value ([10]; 280 g ai/ha alone) was 25%. For the same compound, the pest or weed control at 280 g/ha [4, 18] was 40%, the “visual injury Obs” value ([6]; 280 g ai/ha alone) was 35% and the “visual injury Obs” value ([11]; 280 g ai/ha alone) was 28%. The “visual injury Obs” value ([12]; 280 g ai/ha alone) was 0%.

`CN(C)C(=O)Nc1ccc(Cl)c(Cl)c1` [Diuron, 3-(3,4-dichlorophenyl)-1,1-dimethylurea] was tested, and the “visual injury Obs” value ([7]; 220 g ai/ha alone) was 98%, the “visual injury Obs” value ([8]; 220 g ai/ha alone) was 5% and the “visual injury Obs” value ([2]; 220 g ai/ha alone) was 100%. For the same compound, the “visual injury Obs” value ([9]; 220 g ai/ha alone) was 40%, the “visual injury Obs” value ([3]; 220 g ai/ha alone) was 90% and the “visual injury Obs” value ([10]; 220 g ai/ha alone) was 15%. For the same compound, the pest or weed control at 220 g/ha [4, 18] was 5%, the “visual injury Obs” value ([5]; 220 g ai/ha alone) was 40% and the “visual injury Obs” value ([6]; 220 g ai/ha alone) was 5%. For the same compound, the “visual injury Obs” value ([11]; 220 g ai/ha alone) was 10% and the “visual injury Obs” value ([12]; 220 g ai/ha alone) was 0%.

In the case of `CCCCCCCCSC(=O)Oc1cc(Cl)nnc1-c1ccccc1` [Pyridate, O-6-chloro-3-phenylpyridazin-4-yl S-octyl thiocarbonate], the “visual injury Obs” value ([1]; 125 g ai/ha alone) is reported as 15%, the “visual injury Obs” value ([2]; 125 g ai/ha alone) is reported as 0% and the “visual injury Obs” value ([3]; 125 g ai/ha alone) is reported as 0%. The pest or weed control at 125 g/ha ([4]; Fallopia convolvulus, post-emergence, 125 g ai/ha alone, read-out: visual injury Obs) was 0%, the “visual injury Obs” value ([5]; 125 g ai/ha alone) was 0% and the “visual injury Obs” value ([6]; 125 g ai/ha alone) was 0%. The “visual injury Obs” value ([11]; 125 g ai/ha alone) was 5% and the “visual injury Obs” value ([12]; 125 g ai/ha alone) was 0%.

`CC(C)N1C(=O)c2ccccc2NS1(=O)=O` [Bentazone, 3-isopropyl-1H-2,1,3-benzothiadiazin-4(3H)-one 2,2-dioxide] was tested, and the “visual injury Obs” value ([1]; 51.5 g ai/ha alone) was 30%, the pest or weed control at 51.5 g/ha ([4]; Fallopia convolvulus, post-emergence, 51.5 g ai/ha alone, read-out: visual injury Obs) was 20% and the “visual injury Obs” value ([11]; 51.5 g ai/ha alone) was 0%. The “visual injury Obs” value ([12]; 51.5 g ai/ha alone) was 0%.

`C#CCOC(=O)c1nc(-c2ccc3cc[nH]c3c2F)c(F)c(N)c1Cl` [Compound B, propargyl 4-amino-3-chloro-5-fluoro-6-(7-fluoro-1H-indol-6-yl)pyridine-2-carboxylate] was tested, and the visual injury ([13]; 7.5 g ae/ha alone) was 68%, the visual injury ([13]; 10 g ae/ha alone) was 68% and the “% visual injury, Obs” value ([13]; ABUTH, Compound B 10 g/ha) was 68%. It also gave a visual injury ([1]; 7.5 g ae/ha alone) of 68%, a visual injury ([1]; 10 g ae/ha alone) of 85% and a visual injury ([2]; 7.5 g ae/ha alone) of 85%. For the same compound, the visual injury ([2]; 10 g ae/ha alone) was 90%, the “% visual injury, Obs” value ([2]; CHEAL, Compound B 10 g/ha) was 90% and the visual injury ([9]; 7.5 g ae/ha alone) was 45%. For the same compound, the visual injury ([9]; 10 g ae/ha alone) was 45%, the “% visual injury, Obs” value ([9]; CIRAR, Compound B 10 g/ha) was 45% and the visual injury ([14]; 7.5 g ae/ha alone) was 83%. For the same compound, the visual injury ([14]; 10 g ae/ha alone) was 99%, the “% visual injury, Obs” value ([14]; EPHHL, Compound B 10 g/ha) was 99% and the visual injury ([3]; 7.5 g ae/ha alone) was 68%. The visual injury ([3]; 10 g ae/ha alone) was 80%, the “% visual injury, Obs” value ([3]; KCHSC, Compound B 10 g/ha) was 80% and the visual injury ([4]; 7.5 g ae/ha alone) was 73%. For the same compound, the visual injury ([4]; 10 g ae/ha alone) was 80%, the “% visual injury, Obs” value ([4]; POLCO, Compound B 10 g/ha) was 80% and the visual injury ([15]; 7.5 g ae/ha alone) was 70%. The visual injury ([15]; 10 g ae/ha alone) was 55%, the “% visual injury, Obs” value ([15]; SETFA, Compound B 10 g/ha) was 55% and the visual injury ([16]; 7.5 g ae/ha alone) was 100%. For the same compound, the visual injury ([16]; 10 g ae/ha alone) was 93%, the “% visual injury, Obs” value ([16]; STEME, Compound B 10 g/ha) was 93% and the visual injury ([17]; 7.5 g ae/ha alone) was 10%. For the same compound, the visual injury ([17]; 10 g ae/ha alone) was 40% and the “% visual injury, Obs” value ([17]; VIOTR, Compound B 10 g/ha) was 40%.
